From ChEMBL document CHEMBL5303304, “EUbOPEN Chemogenomics Library - IncuCyte” (2023)

What was measured:
Type in all cases: toxicity, cell-based
[1] = tested on: HEK-293T; assay: Incucyte cell viability with HEK293T; conditions: human, 10 µM, compound concentration 10 uM
[2] = tested on: U2OS; assay: Incucyte cell viability with U2OS; conditions: human, 10 µM, compound concentration 10 uM
[3] = tested on: Fibroblast; assay: Incucyte cell viability with human fibroblast; conditions: 10 µM, compound concentration 10 uM
Also: unitless GR value; below 1 slowed growth and below 0 cell loss.

| SMILES | Growth Rate ([2]; 24 h, replicate number 1) | Growth Rate ([2]; 24 h, replicate number 2) | Growth Rate ([3]; 0 h, replicate number 1) | Growth Rate ([3]; 6 h, replicate number 1) | Growth Rate ([3]; 6 h, replicate number 2) | Growth Rate ([3]; 12 h, replicate number 1) | Growth Rate ([3]; 12 h, replicate number 2) | Growth Rate ([3]; 18 h, replicate number 2) | Growth Rate ([1]; 6 h, replicate number 2) | Growth Rate ([1]; 12 h, replicate number 2) | Growth Rate ([1]; 18 h, replicate number 2) | Growth Rate ([1]; 24 h, replicate number 2) | Growth Rate ([2]; 0 h, replicate number 1) | Growth Rate ([2]; 6 h, replicate number 2) | Growth Rate ([2]; 12 h, replicate number 1) | Growth Rate ([2]; 12 h, replicate number 2) | Growth Rate ([2]; 18 h, replicate number 1) | Growth Rate ([2]; 18 h, replicate number 2) | Growth Rate ([3]; 24 h, replicate number 2) | Growth Rate ([2]; 0 h, replicate number 2) | other results |
| --- | --- | --- | --- | --- | --- | --- | --- | --- | --- | --- | --- | --- | --- | --- | --- | --- | --- | --- | --- | --- | --- |
| FC(F)(F)c1ccc(CNc2ccc(Cc3c[nH]c4ncc(Cl)cc34)cn2)cn1 [PEXIDARTINIB] | 0.95 | 0.98 | -1 | 0.64 | 0.13 | 0.87 | 0.34 | 0.9 |  |  |  |  |  |  |  |  |  |  |  |  | Growth Rate ([1]; 0 h, replicate number 2): -0.38 |
| CC(=O)NCC(=O)N1[C@@H]2CC[C@H]1c1ccc(Nc3ncc(C(F)(F)F)c(NC4CCC4)n3)cc12 [PF-03814735] | 0.02 | -0.08 | -0.26 | -1 |  |  | 0.65 | 0.15 | -0.94 | -0.75 | -0.55 | -0.39 | -0.94 | 1 | -0.05 | -0.14 | 0.03 | -0.08 | 0.08 |  | Growth Rate ([1]; 6 h, replicate number 1): -0.95; Growth Rate ([1]; 12 h, replicate number 1): -0.89; Growth Rate ([1]; 18 h, replicate number 1): -0.72; Growth Rate ([1]; 24 h, replicate number 1): -0.57; Growth Rate ([3]; 18 h, replicate number 1): 0.52; Growth Rate ([3]; 24 h, replicate number 1): 0.86 |
| Cn1nccc1-c1ccc(Sc2cccc(C3(C(N)=O)CCOCC3)c2)cc1 [PF-4191834] | 0.76 | 0.93 |  | -0.12 | 0.25 | 0 | 0.52 | 0.45 | -0.28 | -0.18 | 0 | 0.15 |  | 0.8 |  | 0.79 | 0.94 | 0.88 | 0.46 |  | Growth Rate ([1]; 0 h, replicate number 1): 0.41; Growth Rate ([1]; 6 h, replicate number 1): -0.02; Growth Rate ([1]; 12 h, replicate number 1): 0.37; Growth Rate ([1]; 18 h, replicate number 1): 0.29; Growth Rate ([1]; 24 h, replicate number 1): 0.31; Growth Rate ([2]; 6 h, replicate number 1): 0.7; Growth Rate ([3]; 0 h, replicate number 2): -0.66; Growth Rate ([3]; 18 h, replicate number 1): -0.01; Growth Rate ([3]; 24 h, replicate number 1): 0.22 |
| COc1ccc(-c2cc3c(C)nc(N)nc3n([C@H]3CC[C@H](OCCO)CC3)c2=O)cn1 [PF-04691502] | 0.6 | 0.62 | -1 | 0.8 | 0.33 | 0.03 | -0.28 | -0.29 | -0.8 | -0.6 | -0.38 | -0.25 | -0.97 |  |  |  | 0.65 | 0.83 | -0.32 |  | Growth Rate ([1]; 6 h, replicate number 1): -0.19; Growth Rate ([1]; 12 h, replicate number 1): -0.29; Growth Rate ([1]; 18 h, replicate number 1): -0.17; Growth Rate ([1]; 24 h, replicate number 1): -0.14; Growth Rate ([3]; 18 h, replicate number 1): -0.18; Growth Rate ([3]; 24 h, replicate number 1): -0.23 |
| C[C@@H](C(N)=O)[C@H](N)c1nc2cc(C(C)(C)C)ccc2[nH]1 [PF-06305591] | 0.95 | 0.99 | 0.3 | -0.98 |  | -0.52 |  | 0.77 | 0.51 | 0.9 | 0.91 | 0.94 | -0.1 |  | 0.69 | 0.86 |  | 0.91 |  | -0.8 |  |
| CNC(=O)c1ccc(C)c(-n2c(C)cc(OCc3ccc(F)cc3F)c(Br)c2=O)c1 [PH-797804] |  |  | -0.91 |  | 0.91 |  | 0.99 |  |  |  |  |  | -0.97 | 0.54 | 0.91 | 0.75 |  |  |  | 0.65 | Growth Rate ([1]; 0 h, replicate number 2): 0.72 |
| CCCCCCCCCCCCCC(=O)O[C@@H]1[C@@H](C)[C@@]2(O)[C@@H](C=C(CO)C[C@]3(O)C(=O)C(C)=C[C@@H]23)[C@@H]2C(C)(C)[C@]12OC(C)=O [PHORBOL MYRISTATE ACETATE] | 0.96 | 0.72 |  | 0.89 | -1 | -1 | 0.09 | 0.85 |  |  | 0.99 | 0.75 |  |  | 0.98 |  | 0.96 | 0.92 | 0.78 | -1 | Growth Rate ([1]; 0 h, replicate number 1): 0.64; Growth Rate ([1]; 0 h, replicate number 2): -0.1; Growth Rate ([3]; 0 h, replicate number 2): -0.74 |
| Cc1noc(C)c1-c1cnc2c(-c3ccc(C(=O)O)cc3)cn([C@@H](C)c3ccccn3)c2c1 [PLX-51107] | 0.93 | 1 | -0.53 |  | -0.59 | -0.99 | 0.35 | 0.36 |  | 0.89 | 0.62 | 0.48 | -0.72 |  | 0.94 |  |  |  | 0.49 | -0.91 | Growth Rate ([1]; 0 h, replicate number 1): 0.25; Growth Rate ([1]; 24 h, replicate number 1): 0.93; Growth Rate ([2]; 6 h, replicate number 1): 0.16; Growth Rate ([3]; 0 h, replicate number 2): -0.82; Growth Rate ([3]; 18 h, replicate number 1): -0.39; Growth Rate ([3]; 24 h, replicate number 1): -0.1 |
| O=C(N[C@H]1CN2CCC1CC2)c1ccc(Cl)cc1 [PNU-282987] | 0.94 | 0.86 |  | -0.45 | -0.01 |  | 0.79 | 0.85 | 0.88 | 0.94 |  | 1 |  | 0.78 | 0.84 |  | 0.75 | 0.8 | 0.81 | -0.61 |  |
| CC1(C)CCC[C@]2(C)[C@@H](C=O)C(C=O)=CC[C@@H]12 [POLYGODIAL] |  | 0.88 |  |  | -1 |  | 0.42 | 0.83 | 0.55 | 0.7 | 0.81 | 0.87 | 0.45 | 0.73 |  | 0.57 |  | 0.76 | 0.73 | -0.79 | Growth Rate ([1]; 6 h, replicate number 1): -0.32; Growth Rate ([1]; 12 h, replicate number 1): 0.22; Growth Rate ([1]; 18 h, replicate number 1): 0.52; Growth Rate ([1]; 24 h, replicate number 1): 0.8; Growth Rate ([3]; 18 h, replicate number 1): -0.77; Growth Rate ([3]; 24 h, replicate number 1): 0.41 |
| CC(C)[C@H](CO)Nc1nc(Nc2ccc(C(=O)O)c(Cl)c2)c2ncn(C(C)C)c2n1 [PURVALANOL B] |  |  | -0.93 |  |  |  |  |  |  |  |  |  | -0.96 | 0.56 |  | 0.95 |  |  |  | 0.8 | Growth Rate ([1]; 18 h, replicate number 1): 0.9; Growth Rate ([1]; 24 h, replicate number 1): 1; Growth Rate ([3]; 18 h, replicate number 1): 0.88 |
| C=C[C@H]1C[N@@]2CC[C@H]1C[C@@H]2[C@@H](O)c1ccnc2ccc(OC)cc12 [QUINIDINE] | 0.96 | 0.83 | -0.43 | 0.36 | 0.17 | -1 | 0.9 | 1 | 0.85 |  |  |  |  | -0.07 | 0.59 | 0.65 | 0.93 | 0.73 | 0.74 | -1 |  |
| c1ccc2nc(N3CCNCC3)ccc2c1 [QUIPAZINE] |  |  | 0.15 | 0.27 | 0.04 | -0.91 | 0.92 | 0.72 | 0.5 | 0.95 |  |  | -0.85 | 0.58 | 0.55 |  | 0.94 |  | 0.58 |  | Growth Rate ([1]; 6 h, replicate number 1): 0.43; Growth Rate ([3]; 0 h, replicate number 2): 0.79; Growth Rate ([3]; 18 h, replicate number 1): 0.52; Growth Rate ([3]; 24 h, replicate number 1): 0.85 |
| O=C(Nc1ccc(Oc2ccc(Cl)cc2)c(Cl)c1)c1cc(I)cc(I)c1O [RAFOXANIDE] |  |  |  | -0.56 |  | -1 |  |  | 0.49 | 0.91 |  |  | 0.6 |  | 0.92 | 0.74 | 0.88 |  |  | -1 | Growth Rate ([1]; 6 h, replicate number 1): -0.37; Growth Rate ([1]; 12 h, replicate number 1): -0.61; Growth Rate ([1]; 18 h, replicate number 1): -0.55; Growth Rate ([1]; 24 h, replicate number 1): -0.48; Growth Rate ([2]; 6 h, replicate number 1): 0.57; Growth Rate ([3]; 0 h, replicate number 2): -0.93 |
| O=C(O)CCn1c2c(c3ccccc31)C[C@H](NS(=O)(=O)c1ccc(F)cc1)CC2 [RAMATROBAN] |  |  |  |  |  |  | 0.99 | 0.89 |  |  |  |  | 0.53 |  |  |  |  |  | 0.74 |  | Growth Rate ([1]; 0 h, replicate number 1): 0.1; Growth Rate ([1]; 0 h, replicate number 2): 0.04; Growth Rate ([2]; 6 h, replicate number 1): 0.88 |
| CCOc1cc(CC(=O)N[C@@H](CC(C)C)c2ccccc2N2CCCCC2)ccc1C(=O)O [REPAGLINIDE] | 0.99 |  |  |  |  |  | 0.38 | 0.61 |  |  |  |  |  |  |  | 0.94 |  | 0.96 | 0.86 |  | Growth Rate ([1]; 0 h, replicate number 1): 0.91; Growth Rate ([1]; 0 h, replicate number 2): 0.8 |
